Measurements taken from PMC9318782, “Assessments of Ceanothanes Triterpenes as Cholinesterase Inhibitors: An Investigation of Potential Agents with Novel Inspiration for Drug Treatment of Neurodegenerative Diseases” (Metabolites, 2022).
Where two headings read alike, the source gives them in different places.

Experiments:
[1] = biological target: T1, PAS of EeAChE (Electrophorus electricus, UniProt O42275); experiment: Propidium iodide displacement assay; format: binding; conditions: 0.25 h, read-out: % Displacement of Propidium Iodide
T1 construct: purchased Sigma-Aldrich
Protocol: […] Propidium iodide is known for ability to specifically binding to the PAS region of AChE.
The percentage inhibition was calculated by the following expression: 100-(IFi/IF0 × 100), where IF1 and IF0 correspond to fluorescence intensities with and without the test compound, respectively. Each assay was carried out in triplicate.

[2] = biological target: T2, AChE (Electrophorus electricus, UniProt O42275); experiment: biochemical; format: biochemical; conditions: for Inhibition Type: Lineweaver-Burk and Dixon plots
Protocol: To investigate the inhibition mechanism of the tested compounds on AChE, a kinetic analysis was performed. The experiments were carried out using a combination of four substrate concentrations and three inhibitor concentrations with the view to obtain a double reciprocal plot (Lineweaver–Burk), in which each point is the mean of three different experiments. A parallel control with no inhibitor in the mixture allowed adjusting activities to be measured at various times.

[3] = biological target: T3, AChE from Electrophorus electricus (Electrophorus electricus, UniProt O42275); experiment: biochemical; conditions: AChE from Electrophorus electricus (commercial enzyme); Ellman; Table 1; read-out: IC50 ± SEM, AChE
T3 construct: purchased Sigma-Aldrich
Protocol: (§1) The Ellman assay was used to test acetylcholinesterase (AChE from Electrophorus electricus, and human blood) and butyrylcholinesterase (BChE from equine serum) inhibition activity. Human blood was drawn using sterilized syringes and stored in BD Vacutainer tubes with heparin as an anticoagulant at 4 °C for 1 h. To lyse the erythrocytes, 1 mL of a 1:50 dilution of the blood sample was prepared with the non-ionic detergent triton X-100. A mixture of the DTNB (125 μL), enzyme solution (25 μL), and compound solution (25 μL) was prepared and incubated at room temperature for 20 min. All the assays were under 0.1 M KH2PO4/K2HPO4 buffer, pH 8.0. The substrate was added to start the enzymatic reaction. […] All measurements were performed fivefold as triplicate. The compounds were assayed in a dilution interval of 15 to 500 μg/mL.

[4] = biological target: T4, butyrylcholinesterase (BChE from equine serum) (Equus caballus, UniProt P81908); experiment: Ellman assay, BChE inhibition; format: biochemical
T4 construct: butyrylcholinesterase (from equine serum) were purchased from Sigma-Aldrich; purchased Sigma-Aldrich; host or cells: equine serum
Protocol: as §1, with “μg/mL. […] The percentage of inhibition was determined as follows: I(%)=(1−Aprobe/Ablank)100” for “μg/mL.”

[5] = biological target: T5, AChE from human blood (Homo sapiens, UniProt P22303); experiment: biochemical; conditions: AChE obtained from human blood samples; Ellman; read-out: IC50 ± SEM, AChE hb
T5 construct: the enzyme extracted from human blood; from tissue; host or cells: human whole blood, erythrocytes lysed with Triton X-100
Protocol: as §1, with “μg/mL. […] The percentage of inhibition was determined as follows: I(%)=(1−Aprobe/Ablank)100” for “μg/mL.”

[6] = biological target: T2, AChE; conditions: cited from earlier work; for IC50: read-out: IC50, AChE inhibitory activity
[7] = alkaloids from Esenbeckia leiocarpa ref 40

T5 sequence (P22303 32-617 isoform P22303-2 limits assumed): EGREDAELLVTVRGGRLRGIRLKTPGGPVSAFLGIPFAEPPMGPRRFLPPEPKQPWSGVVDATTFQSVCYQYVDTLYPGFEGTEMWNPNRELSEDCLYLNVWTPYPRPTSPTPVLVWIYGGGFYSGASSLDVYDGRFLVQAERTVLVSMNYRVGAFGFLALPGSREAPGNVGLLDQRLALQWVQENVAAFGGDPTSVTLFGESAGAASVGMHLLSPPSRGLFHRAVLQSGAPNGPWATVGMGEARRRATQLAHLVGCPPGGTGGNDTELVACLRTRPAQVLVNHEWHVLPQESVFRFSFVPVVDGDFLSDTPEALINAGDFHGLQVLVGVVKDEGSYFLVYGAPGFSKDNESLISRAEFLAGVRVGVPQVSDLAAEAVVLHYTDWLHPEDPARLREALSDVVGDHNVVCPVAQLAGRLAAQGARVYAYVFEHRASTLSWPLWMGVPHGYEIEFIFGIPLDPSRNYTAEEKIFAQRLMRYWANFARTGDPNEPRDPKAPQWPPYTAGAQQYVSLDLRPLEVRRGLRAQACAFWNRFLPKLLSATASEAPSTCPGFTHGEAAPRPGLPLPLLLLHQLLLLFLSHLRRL
T4 sequence (P81908 whole entry): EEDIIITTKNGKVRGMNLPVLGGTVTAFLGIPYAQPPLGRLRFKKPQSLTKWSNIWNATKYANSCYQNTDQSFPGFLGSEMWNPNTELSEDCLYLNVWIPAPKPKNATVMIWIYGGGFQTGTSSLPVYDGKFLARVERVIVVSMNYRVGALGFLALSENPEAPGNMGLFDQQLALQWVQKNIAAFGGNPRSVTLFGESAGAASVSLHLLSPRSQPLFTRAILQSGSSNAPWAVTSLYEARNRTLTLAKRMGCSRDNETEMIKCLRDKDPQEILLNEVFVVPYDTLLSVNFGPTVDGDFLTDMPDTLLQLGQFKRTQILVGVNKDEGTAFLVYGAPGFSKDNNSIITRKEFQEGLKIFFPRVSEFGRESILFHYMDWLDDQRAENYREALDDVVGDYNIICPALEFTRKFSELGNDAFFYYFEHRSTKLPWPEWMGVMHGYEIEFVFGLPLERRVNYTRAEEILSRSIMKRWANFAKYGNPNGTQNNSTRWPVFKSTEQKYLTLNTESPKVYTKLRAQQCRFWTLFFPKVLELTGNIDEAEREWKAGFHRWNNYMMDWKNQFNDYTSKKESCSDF
T3 sequence (O42275 24-633): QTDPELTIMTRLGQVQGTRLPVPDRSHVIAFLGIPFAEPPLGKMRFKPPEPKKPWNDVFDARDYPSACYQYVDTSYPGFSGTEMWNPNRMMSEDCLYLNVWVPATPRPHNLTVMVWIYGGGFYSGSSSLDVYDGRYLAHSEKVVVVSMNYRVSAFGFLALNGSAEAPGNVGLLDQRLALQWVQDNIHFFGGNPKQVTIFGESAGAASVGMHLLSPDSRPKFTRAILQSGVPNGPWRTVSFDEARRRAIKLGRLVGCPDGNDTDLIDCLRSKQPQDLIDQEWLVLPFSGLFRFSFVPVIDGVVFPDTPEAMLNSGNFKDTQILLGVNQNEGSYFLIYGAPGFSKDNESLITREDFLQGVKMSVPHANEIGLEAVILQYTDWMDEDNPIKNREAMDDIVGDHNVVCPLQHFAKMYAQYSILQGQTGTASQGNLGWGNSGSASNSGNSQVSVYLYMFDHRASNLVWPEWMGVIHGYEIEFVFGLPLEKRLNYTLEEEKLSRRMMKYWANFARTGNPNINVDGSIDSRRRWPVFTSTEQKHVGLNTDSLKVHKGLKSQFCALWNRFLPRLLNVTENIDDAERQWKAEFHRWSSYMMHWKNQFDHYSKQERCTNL
T1 sequence (O42275 24-633): as above
T2 sequence (O42275 24-633): as above

C=C(C)[C@@H]1CC[C@]2(C(=O)O)CC[C@]3(C)C(CCC4[C@@]5(C)C(C=O)=CC(C)(C)C5CC[C@]43C)C12 (stereo partly shown) [Compound 1, Zizyberenalic acid]
inhibition at 0.75 µM [1]: 19.7 ± 0.8%
inhibition at 1.5 µM ([1]; 1.5 µM compound, EeAChE): 26.3 ± 1.3%
Ki [2]: 46 nM
Inhibition Type [2]: mixed competitive mode inhibition
IC50 [3]: 184 ± 0.7 nM
IC50 [4]: > 500000 nM
IC50 [5]: 215 ± 5 nM

C=C(C)[C@@H]1CC[C@]2(C(=O)O)CC[C@]3(C)C(CCC4[C@@]5(C)C(C=O)C(O)C(C)(C)C5CC[C@]43C)C12 (stereo partly shown) [Compound 2, Zizyberanalic acid]
inhibition at 1.5 µM [1]: 23.2 ± 0.8%
Ki [2]: 28 nM
Inhibition Type [2]: mixed competitive mode inhibition
IC50 [3]: 150 ± 0.9 nM
IC50 [4]: > 500000 nM
IC50 [5]: 173 ± 6 nM

C=C(C)[C@@H]1CC[C@]2(C(=O)O)CC[C@]3(C)[C@H](CC[C@@H]4[C@@]5(C)[C@@H](C(=O)O)[C@H](O)C(C)(C)[C@@H]5CC[C@]43C)[C@@H]12 [Compound 3, Ceanothic acid]
inhibition at 0.75 µM [1]: 34.2 ± 0.6%
inhibition at 1.5 µM ([1]; 1.5 µM compound, EeAChE): 45.6 ± 1.1%
Ki [2]: 55 nM
Inhibition Type [2]: partially competitive
Inhibition Type ([2]; listed as compound 3): competitive and reversible
IC50 [3]: 125 ± 0.4 nM
IC50 [4]: > 500000 nM
IC50 [5]: 146 ± 3 nM

C=C(C)[C@@H]1CC[C@]2(C(=O)O)CC[C@]3(C(=O)O)[C@H](CC[C@@H]4[C@@]5(C)C=CC(C)(C)[C@@H]5CC[C@]43C)[C@@H]12 [Compound 4, Ceanothenic acid]
inhibition at 0.75 µM [1]: 20.1 ± 1%
inhibition at 1.5 µM ([1]; 1.5 µM compound, EeAChE): 26.7 ± 1.3%
Ki [2]: 22 nM
Inhibition Type [2]: mixed competitive mode inhibition
IC50 [3]: 188 ± 0.5 nM
IC50 [4]: > 500000 nM
IC50 [5]: 219 ± 4 nM

C=C(C)[C@@H]1CC[C@]2(C(=O)O)CC[C@]3(C)[C@H](CC[C@@H]4[C@@]5(C)[C@H](CO)[C@@H](O)C(C)(C)[C@@H]5CC[C@]43C)[C@@H]12 [Compound 5, Ceanothanolic acid]
inhibition at 0.75 µM [1]: 14.5 ± 0.3%
inhibition at 1.5 µM ([1]; 1.5 µM compound, EeAChE): 19.3 ± 1.5%
Ki [2]: 56 nM
Inhibition Type [2]: mixed competitive mode inhibition
IC50 [3]: 155 ± 0.1 nM
IC50 [4]: > 500000 nM
IC50 [5]: 181 ± 0.7 nM

C=C(C)[C@@H]1CC[C@]2(C(=O)O)CC[C@]3(C)C(CCC4[C@@]5(C)C(C(=O)O)C(=O)C(C)(C)C5CC[C@]43C)C12 (stereo partly shown) [Compound 6, 3-oxo-ceanothic acid]
inhibition at 0.75 µM [1]: 24.3 ± 0.7%
inhibition at 1.5 µM ([1]; 1.5 µM compound, EeAChE): 40.5 ± 1.5%
Ki [2]: 47 nM
Inhibition Type [2]: mixed competitive mode inhibition
IC50 [3]: 172 ± 1.2 nM
IC50 [4]: > 500000 nM
IC50 [5]: 199 ± 9 nM

C=C(C)[C@@H]1CC[C@]2(C(=O)O)CC[C@]3(C)C(CCC4[C@@]5(C)C(C(=O)O)C(OC(C)=O)C(C)(C)C5CC[C@]43C)C12 (stereo partly shown) [Compound 7, 3-O-acetyl-ceanothic acid]
inhibition at 1.5 µM [1]: 32.1 ± 1.3%
Ki [2]: 50 nM
Inhibition Type [2]: partially competitive
IC50 [3]: 179 ± 0.1 nM
IC50 [4]: > 500000 nM
IC50 [5]: 207 ± 6 nM

O=c1c(O)c(-c2ccccc2)oc2cc(O)cc(O)c12 [galangin]
IC50 [6]: 120000 nM

COc1cc2nc3occc3c(OC)c2cc1OC [kokusaginine]
IC50 [6, 7]: 46000 nM

CCCc1cc(=O)c2ccccc2n1C [leptomerine]
IC50 [6, 7]: 2500 nM

C[C@H]1[C@H](C)CC[C@]2(C(=O)O)CC[C@]3(C)C(=CC[C@@H]4[C@@]5(C)CC[C@H](O)C(C)(C)[C@@H]5CC[C@]43C)[C@H]12 [ursolic acid]
mode of AChE inhibition [6]: competitive/non-competitive
